Assays:
DNA = details: cited from earlier work
tumor cells = details: in vitro and in vivo; cited from earlier work
NF-κB = details: tumor cells; cited from earlier work
p53 = details: cited from earlier work
[1] = system: U87-MG skin xenograft tumor explants; assay: U87-MG skin xenograft tumor explants, ERSR markers; assay type: in vivo, mice; details: samples after 7 and 21 days
Excerpt: U7 represents vehicle treated sample after 7 days. U21 represents vehicle treated sample after 21 days. Q7 represents quinacridine-treated sample after 7 days. Q21 represents quinacridine-treated sample after 21 days. 9AA-7 represents 9-aminoacridine-treated sample after 7 days. 9AA-21 represents 9-aminoacridine-treated sample after 21 days.

[2] = system: subcutaneous U87-MG gliomas; assay: Mice bearing subcutaneous U87-MG gliomas; assay type: in vivo
Excerpt: The estimated survival prolongment is 14 days in mice life which compares at 851 days in human life based on a life expectancy of 18 months in mice and 90 years in human. Also, since one animal was tumor-free at the end of the treatment that translates in an expected 16% cure rate.
FIG. 29a graphs % tumor weight/control as a function of days after implantation. […] Such a profile indicates effectiveness in vivo for both treatment and for prevention of relapse. FIG. 29b graphs % animal survival as a function of days after implantation. […] Such a profile indicates effectiveness in vivo for both treatment and for prevention of relapse.
Mice bearing subcutaneous gliomas were received daily oral administration of 200 mg/kg of quinacrine. […] In FIG. 29 is shown the effect of 100 mg/kg of quinacrine and 10 mg/kg 9-aminoacridine in Mice bearing subcutaneous U87-MG gliomas.

gliomas = details: in association with established anti-glioma medications; cited from earlier work
[3] = full dose over about 45 days, Q oral, 9-AA I.P.
[4] = half dose (maintenance dose) up to about 60 days

Structure (SMILES): Nc1c2ccccc2nc2ccccc12 [9-aminoacridine]
- DNA damaging activity (DNA): not found to show DNA damaging activity
- toxicity to tumor versus normal cells (tumor cells): more toxic to tumor than to normal cells
- stimulated and basal constitutive NF-κB activity (NF-κB): block stimulated NF-κB activity and also effectively reduce basal levels of constitutive NF-κB activity
- p53 activation and p53-dependent killing of tumor cell types (p53): capable of p53 activation and p53-dependent killing
- ERSR activation and GRP78 target protein in tumor explants [1]: activaiton of ERSR and changes in GRP78 target protein
- caspase 12 activation in tumor explants [1]: activation of caspase 12 is evident
- cure rate ([2]; 10 mg/kg 9-aminoacridine): 77%
- antiglioma action ([2]; 100 mg/kg of quinacrine and 10 mg/kg 9-aminoacridine): powerful antiglioma action
- tumor once survival rate stabilized ([2]; 9-AA I.P.): no sign of tumor
- animal survival rate compared to control [2, 3]: increased survival rate
- tumor size compared to control [2, 3]: decrease in tumor size
- animal survival rate compared to control [2, 4]: survival rate was high
- tumor size compared to control [2, 4]: tumor size remained relatively constant

Structure (SMILES): CCN(CC)CCCC(C)Nc1ccnc2cc(Cl)ccc12 (centres unmarked) [Chloroquine]
- patient survival (gliomas): patient survival was significantly prolonged
